Measurements as given in BindingDB's records for doi:10.1080/14756360701810207 (Gyeongsang National University, 2008).
Where “and” joins values, the source holds several entries; their conditions need not be identical. Equal entries are not always repeated.

These compounds were tested against T1, Polyphenol oxidase 2 (Agaricus bisporus, UniProt O42713) (assay: Tyrosinase Assay). Conditions: 30 °C.
T1 sequence (O42713 whole entry): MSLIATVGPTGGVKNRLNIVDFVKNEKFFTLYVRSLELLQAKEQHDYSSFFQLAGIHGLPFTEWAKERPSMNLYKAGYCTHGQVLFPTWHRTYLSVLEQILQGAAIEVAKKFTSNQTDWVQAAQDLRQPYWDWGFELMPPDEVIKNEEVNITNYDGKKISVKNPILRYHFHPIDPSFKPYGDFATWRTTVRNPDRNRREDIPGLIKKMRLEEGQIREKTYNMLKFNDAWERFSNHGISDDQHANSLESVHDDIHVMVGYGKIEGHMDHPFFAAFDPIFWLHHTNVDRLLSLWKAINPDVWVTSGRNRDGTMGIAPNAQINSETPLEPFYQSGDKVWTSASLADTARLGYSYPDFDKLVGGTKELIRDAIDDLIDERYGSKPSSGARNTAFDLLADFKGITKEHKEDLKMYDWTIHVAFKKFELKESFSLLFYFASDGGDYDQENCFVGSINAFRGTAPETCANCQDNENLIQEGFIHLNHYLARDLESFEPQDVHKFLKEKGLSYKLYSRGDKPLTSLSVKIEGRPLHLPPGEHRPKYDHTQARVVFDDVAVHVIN
From the text: Mushroom tyrosinase using either L-DOPA or L-tyrosine as substrate. In spectrophotometric experiments, enzyme activity was monitored by dopachrome formation at 475 nm with a UV-Vis spectrophotometer (Spectro UV-Vis Double beam; UVD-3500, Labomed, Inc.) at 30 C.

IC50 | Ki [µM] | Compound
135 µM and > 300 µM | 80.5 | CC(C)=CCc1c(-c2ccc(O)cc2O)oc2c(CC=C(C)C)c(O)cc(O)c2c1=O
91.6 µM and 161 µM | 46.4 | CC(C)=CC1Oc2cc(O)ccc2-c2oc3c4c(cc(O)c3c(=O)c21)OC(C)(C)C=C4 (stereo not drawn) [Cycolmorusin, 2]
87.8 µM and 215 µM | 49.2 | C/C(=C\Cc1c(-c2ccc(O)cc2O)oc2c3c(cc(O)c2c1=O)OC(C)(CO)C=C3)CO (stereo not drawn) [Mormin, 1]
> 300 µM | – | CC(C)=CCc1c(-c2ccc(O)cc2O)oc2c3c(cc(O)c2c1=O)OC(C)(C)C=C3 [Morusin, 3]
– | 0.61 | O=c1cc(-c2ccc(O)cc2O)oc2cc(O)cc(O)c12 [Norartocarpetin, 5]
